Test results from publication PMC8062851, “2-Methoxyestradiol and its derivatives inhibit store-operated Ca^2+ entry in T cells: Identification of a new and potent inhibitor” (Biochimica et Biophysica Acta. Molecular Cell Research, 2021).
pIC50: −log10 of the molar value. “Also recorded” adds a separate entry of the source. Like-named read-outs stand apart in the source and are kept apart here.

Experiments:
KV channels = target: T1, KV channels (Homo sapiens, UniProt P22001); assay: Whole-cell patch clamp of KV channels in Jurkat T cells; assay type: cell-based; settings: STX564 at 10 μM
T1 construct: About 10^5 Jurkat T-lymphocytes were placed into this recording chamber; endogenous in cells; host or cells: Jurkat T-lymphocytes (whole-cell patch clamp)

SOCE in Jurkat T cells = assay: Inhibition during activated SOCE (thapsigargin or anti-CD3 OKT3, 1 mM extracellular Ca2+) in Jurkat T cells; assay type: cell-based, human; settings: for pIC50: Homo sapiens, Jurkat, 1 mM extracellular Ca2+
Method: Jurkat T-lymphocytes, primary human CD4^+ T cells and H1299 cells were pelleted at 450 ×g for 5 min, rat TMBP at 300 ×g for 8 min at room temperature and were resuspended in 1 ml of either standard JMP medium (Jurkat, H1299 and human CD4^+ T cells) or standard DMEM based medium containing 10% fetal bovine serum (FBS) (v/v) (TMBP cells). Resting TMBP cells (day 5–7 after re-stimulation) after the second to fifth re-stimulation were thawed from liquid nitrogen 12 to 40 h prior to Fura2-loading. After pre-incubation for 5 min at 37 °C, cells were incubated with 4 μM Fura2-AM for 15 min at 37 °C. After addition of the dye, cells were kept in the dark. Afterwards, cells and the dye were diluted by addition of 4 ml standard medium and incubated for another 15 min. Cells were washed twice in Ca^2+ buffer (140 mM NaCl, 5 mM KCl, 1 mM MgSO4, 1 mM CaCl2, 1 mM NaH2PO4, 20 mM HEPES, 5.5 mM glucose; pH 7.4 (NaOH), sterile filtered) and were diluted to a concentration of 2*10^6 cells/ml. Subsequently, cells were kept at room temperature for 20 min for de-esterification before the start of the first measurement.
10^6 Jurkat T-lymphocytes, H1299 cells, TMBP cells or 4*10^6 primary human CD4^+ T cells were added into a 10 × 10 mm quartz glass cuvette (Hellma Analytics, Germany) that was placed into a fluorescence spectrophotometer (F-2710, Hitachi, Japan). In experiments using a Ca^2+ free/Ca^2+ re-addition protocol, cells were pelleted as described for Fura2 loading and Ca^2+ buffer was exchanged by 1 ml nominal Ca^2+ free buffer (140 mM NaCl, 5 mM KCl, 1 mM MgSO4, 1 mM NaH2PO4, 20 mM HEPES, 5.5 mM glucose; pH 7.4 (NaOH), sterile filtered) immediately before starting the measurement. The measurement was controlled by FL Solutions (Version 4.1, Hitachi High-Technologies Corporation). Fura2 was alternatively excited every 2 s at 340 ± 5 nm and 380 ± 5 nm, each 400 ms apart. Fluorescence intensity was measured at an emission wavelength of 495 ± 5 nm for both excitation wavelengths.
Finally, every measurement was calibrated using 0.1% (v/v) Triton X-100 to obtain a maximal ratio and 4 mM EGTA and 30 mM Tris to obtain a minimal ratio. […]
Besides the Ca^2+ free/Ca^2+ re-addition protocol, we also characterized the effect of STX564 in cells during activated SOCE in the presence of thapsigargin (TG, Fig. 2A,B) or upon stimulation via their TCR/CD3 complex (Fig. 2C). […]. […] Similarly, in Fig. 2C this effect of a partial or full recovery of SOCE was also observed, a few minutes after STX564 addition.

SERCA pumps = assay: SERCA activity (ATP-induced Ca2+ reuptake) in permeabilized Jurkat T cells; assay type: cell-based, human
Method: 3 ∗ 10^7 Jurkat T-lymphocytes per measurement were centrifuged at 450 ×g for 5 min at room temperature. The pellet was rinsed twice, each time using 10 ml permeabilization buffer 1 (120 mM KCl, 10 mM NaCl, 1.2 mM MgCl2, 0.533 mM CaCl2, 1 mM EGTA and 10 mM HEPES, pH 7.2 (KOH), sterile filtered). Subsequently, the pellet was resuspended in 2 ml permeabilization buffer 1 containing 80 μg/ml saponin (Fluka) and the cells were incubated for 10 min at 37 °C. Subsequently, the cells were centrifuged at 450 ×g for 5 min at room temperature and the cell pellet was washed once in 10 ml permeabilization buffer 2 (120 mM KCl, 10 mM NaCl, 1.2 mM MgCl2 and 10 mM HEPES, pH 7.2 (KOH), sterile filtered). Finally, the cells were taken up in 1 ml permeabilization buffer 2, placed into a cuvette and measured at the fluorescence spectrophotometer. Before the start of the measurement, 0.5 μl of 1 mM Fura2 free acid (dissolved in pure water, final concentration: 0.5 μM), 5 μl of 5 mg/ml creatinkinase (dissolved in permeabilization buffer 2, final concentration: 25 μg/ml, 20 U/ml, Roche) and 10 μl of 2 M creatin phosphate (dissolved in permeabilization buffer 2, final concentration: 20 mM, Calbiochem) were added. Fura2 was used to measure the Ca^2+ concentration and creatinkinase and creatin phosphate were used as ATP-regenerating system. The measurement was controlled by FL Solutions (Version 4.1, Hitachi High-Technologies Corporation). Fura2 was alternatively excited every 2 s at 340 ± 5 nm and 380 ± 5 nm, each 400 ms apart. Fluorescence intensity was measured at an emission wavelength of 495 ± 5 nm for both excitation wavelengths. […] Ca^2+ concentrations were calculated according to Grynkiewicz et al. as described earlier in Section 2.4.
As a quantitative read-out for inhibition of IP3 receptors, the peak [Ca^2+] after IP3 addition was subtracted from the mean [Ca^2+] between 25 and 75 s before IP3 addition (dPeak). […] The rate constant K of the fitted data was used as a quantitative read-out for SERCA pump activity and its inhibition.

T1 sequence (P22001 whole entry): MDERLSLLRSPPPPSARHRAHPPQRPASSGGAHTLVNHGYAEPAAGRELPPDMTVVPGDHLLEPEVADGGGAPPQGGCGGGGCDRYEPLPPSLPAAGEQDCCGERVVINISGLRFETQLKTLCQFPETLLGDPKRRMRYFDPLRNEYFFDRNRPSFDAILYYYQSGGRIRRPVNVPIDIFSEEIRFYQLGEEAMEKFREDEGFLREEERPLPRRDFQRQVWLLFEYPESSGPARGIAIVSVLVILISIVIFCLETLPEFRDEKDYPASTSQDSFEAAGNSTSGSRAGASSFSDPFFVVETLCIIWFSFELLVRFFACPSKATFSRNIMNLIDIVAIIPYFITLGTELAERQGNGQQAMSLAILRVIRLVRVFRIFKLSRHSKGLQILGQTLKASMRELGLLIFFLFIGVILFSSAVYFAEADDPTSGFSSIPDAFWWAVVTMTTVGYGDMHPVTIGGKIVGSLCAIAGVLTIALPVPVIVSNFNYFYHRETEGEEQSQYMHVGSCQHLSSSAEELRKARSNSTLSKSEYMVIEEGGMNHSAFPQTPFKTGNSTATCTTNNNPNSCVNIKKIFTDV

CCc1cc2c(cc1OS(N)(=O)=O)CC[C@@H]1[C@@H]2CC[C@]2(C)[C@@H](CC#N)CC[C@@H]12 [STX564, 2-ethyl-3-sulfamoyloxy-17β-cyanomethylestra-1,3,5(10)-triene]
effect on KV channel currents (KV channels): does not inhibit KV channels; also recorded: no inhibition; also recorded: does not inhibit the KV1.3 channel | pIC50 (SOCE in Jurkat T cells; read-out: IC50 of SOCE inhibition during active SOCE, Jurkat T cells stimulated by 1 μM thapsigargin (TG)): 5.52 | pIC50 (SOCE in Jurkat T cells; read-out: IC50 of SOCE inhibition during active SOCE, Jurkat T cells stimulated by 1 μg/ml αCD3 (OKT3)): 5.70 | extent of inhibition when added during activated SOCE (SOCE in Jurkat T cells; Jurkat T cells, TG or TCR/CD3 stimulation): only partial inhibition | effect on SERCA activity (initial slope of [Ca2+] upon ATP addition) (SERCA pumps): Neither STX564, Synta66 nor vehicle DMSO affected ATP-induced Ca^2+ reuptake by SERCA pumps; also recorded: neither STX564 nor Synta66 showed any effect
